Data from PubChem BioAssay AID1963986 (Molecular Pharmacology Branch, DTP, NCI, 2024).

Test system: 171881-019-R-J1-PDC tumor spheroid viability
Assay: Anticancer human tumor 171881-019-R-J1-PDC patient-derived invasive breast carcinoma cell line growth inhibition [PI3K]
Settings: spheroids with HUVEC and MSC; for IC50: curve of first compound; for viability, T/C: stronger effect = lower value
Summary of the method: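 Three cell types, namely tumor cells, endothelial cells and mesenchymal stem cells, formed each spheroid. Combinations with four PI3K inhibitors were screened at clinically achievable concentrations decreasing by half-log, and spheroid viability was recorded.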
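Note: spheroids exposed to compound for 7 days before viability read.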
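Throughout, for viability, T/C: 100% = DMSO vehicle-treated spheroids.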

## CC1(C)CCC(Nc2ncc(C(F)(F)F)c(-c3c[nH]c4c(P(C)(C)=O)c(C#N)ccc34)n2)CN1 (configuration not stated) + Cc1nc(NC(=O)N2CCCC2C(N)=O)sc1-c1ccnc(C(C)(C)C(F)(F)F)c1
Second compound 0.0316 µM
  IC50: 5340 nM
Second compound 0.1 µM
  IC50: 4400 nM
Second compound 0.316 µM
  IC50: 1030 nM
Second compound 1 µM
  IC50: < 31.6 nM
Second compound 3.16 µM
  IC50: < 31.6 nM
Second compound 10 µM
  IC50: < 31.6 nM
Second compound 0.0316 µM, first compound 0.0316 µM
  viability, T/C: 66.7%
Second compound 0.0316 µM, first compound 0.1 µM
  viability, T/C: 65%
Second compound 0.0316 µM, first compound 0.316 µM
  viability, T/C: 73.8%
Second compound 0.0316 µM, first compound 1 µM
  viability, T/C: 79.6%
Second compound 0.0316 µM, first compound 3.16 µM
  viability, T/C: 77.5%
Second compound 0.0316 µM, first compound 10 µM
  viability, T/C: 22.9%
Second compound 0.1 µM, first compound 0.0316 µM
  viability, T/C: 59.4%
Second compound 0.1 µM, first compound 0.1 µM
  viability, T/C: 65%
Second compound 0.1 µM, first compound 0.316 µM
  viability, T/C: 62.9%
Second compound 0.1 µM, first compound 1 µM
  viability, T/C: 71.4%
Second compound 0.1 µM, first compound 3.16 µM
  viability, T/C: 63.4%
Second compound 0.1 µM, first compound 10 µM
  viability, T/C: 16.3%
Second compound 0.316 µM, first compound 0.0316 µM
  viability, T/C: 46.7%
Second compound 0.316 µM, first compound 0.1 µM
  viability, T/C: 49%
Second compound 0.316 µM, first compound 0.316 µM
  viability, T/C: 49.6%
Second compound 0.316 µM, first compound 1 µM
  viability, T/C: 55.5%
Second compound 0.316 µM, first compound 3.16 µM
  viability, T/C: 47.8%
Second compound 0.316 µM, first compound 10 µM
  viability, T/C: 7.89%
Second compound 1 µM, first compound 0.0316 µM
  viability, T/C: 31.4%
Second compound 1 µM, first compound 0.1 µM
  viability, T/C: 30.6%
Second compound 1 µM, first compound 0.316 µM
  viability, T/C: 33.4%
Second compound 1 µM, first compound 1 µM
  viability, T/C: 32.7%
Second compound 1 µM, first compound 3.16 µM
  viability, T/C: 28.7%
Second compound 1 µM, first compound 10 µM
  viability, T/C: 3.22%
Second compound 3.16 µM, first compound 0.0316 µM
  viability, T/C: 15.9%
Second compound 3.16 µM, first compound 0.1 µM
  viability, T/C: 17%
Second compound 3.16 µM, first compound 0.316 µM
  viability, T/C: 17.7%
Second compound 3.16 µM, first compound 1 µM
  viability, T/C: 18.8%
Second compound 3.16 µM, first compound 3.16 µM
  viability, T/C: 13.3%
Second compound 3.16 µM, first compound 10 µM
  viability, T/C: 1.08%
Second compound 10 µM, first compound 0.0316 µM
  viability, T/C: 4.21%
Second compound 10 µM, first compound 0.1 µM
  viability, T/C: 4.48%
Second compound 10 µM, first compound 0.316 µM
  viability, T/C: 5.01%
Second compound 10 µM, first compound 1 µM
  viability, T/C: 5.05%
Second compound 10 µM, first compound 3.16 µM
  viability, T/C: 2.85%
Second compound 10 µM, first compound 10 µM
  viability, T/C: 0.32%
